{"source": "ChEMBL document CHEMBL1201862", "about": "“PubChem BioAssay data set” (2004)", "key": {"[1]": {"biological_target": "T1, COUP transcription factor 2 (Homo sapiens, UniProt P24468)", "T1 sequence (P24468 whole entry)": "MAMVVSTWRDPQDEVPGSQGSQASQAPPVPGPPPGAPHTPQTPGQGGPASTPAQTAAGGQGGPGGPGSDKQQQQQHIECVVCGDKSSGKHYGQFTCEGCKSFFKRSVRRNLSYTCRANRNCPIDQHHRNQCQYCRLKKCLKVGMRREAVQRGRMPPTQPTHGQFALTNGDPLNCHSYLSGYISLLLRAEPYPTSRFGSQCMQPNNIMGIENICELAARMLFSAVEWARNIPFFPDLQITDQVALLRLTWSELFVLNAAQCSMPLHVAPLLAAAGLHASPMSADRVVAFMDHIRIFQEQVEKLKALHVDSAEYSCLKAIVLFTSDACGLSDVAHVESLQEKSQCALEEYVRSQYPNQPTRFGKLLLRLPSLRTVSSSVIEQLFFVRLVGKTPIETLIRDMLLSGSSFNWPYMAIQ", "assay": "Luminescence-based cell-based high throughput dose response assay to identify inhibitors of COUP-TFII (NR2F2).", "format": "functional"}, "INS1": {"system": "INS1", "assay": "beta cell apoptosis inhibitors, cytokine rescue, dose response, luminescence, retest (AID 449756);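 also: cell death triggered by IL-1 beta plus TNF-alpha plus IFN-gamma mixture; protective hits raise ATP signal compared with cytokine alone wells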", "format": "functional, cell-based", "conditions": "Rattus norvegicus"}, "cells [2]": {"assay": "cells", "format": "functional, cell-based", "conditions": "HEK-CNG"}, "Galanin receptor type 3": {"biological_target": "Galanin receptor type 3 (Homo sapiens, UniProt O60755)", "sequence (O60755 whole entry)": "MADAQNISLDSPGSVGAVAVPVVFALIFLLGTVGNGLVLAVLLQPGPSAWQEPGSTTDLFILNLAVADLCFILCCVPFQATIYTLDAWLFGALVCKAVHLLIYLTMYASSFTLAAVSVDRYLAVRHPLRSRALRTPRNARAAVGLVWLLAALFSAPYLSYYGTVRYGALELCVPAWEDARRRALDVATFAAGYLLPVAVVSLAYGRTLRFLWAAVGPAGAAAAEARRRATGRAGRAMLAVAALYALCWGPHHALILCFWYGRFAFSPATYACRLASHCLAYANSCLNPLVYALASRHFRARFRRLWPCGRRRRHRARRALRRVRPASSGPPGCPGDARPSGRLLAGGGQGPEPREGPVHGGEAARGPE", "assay": "Fluorescence-based cell-based primary high throughput dose response assay to identify antagonists of the Galanin Receptor 3 (GalR3).", "format": "functional"}, "[3]": {"assay": "cytotoxicity in HEK-293T cells, dose response, cytotoxicity control for TCR NF-kB inhibitor project, luminescence, T-cell screen hits (AID 489026);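 also: cells exposed to compound about 14 hours before the viability readout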", "format": "functional, cell-based"}, "Paired box protein Pax-8": {"biological_target": "Paired box protein Pax-8 (Homo sapiens, UniProt Q06710)", "sequence (Q06710 whole entry)": "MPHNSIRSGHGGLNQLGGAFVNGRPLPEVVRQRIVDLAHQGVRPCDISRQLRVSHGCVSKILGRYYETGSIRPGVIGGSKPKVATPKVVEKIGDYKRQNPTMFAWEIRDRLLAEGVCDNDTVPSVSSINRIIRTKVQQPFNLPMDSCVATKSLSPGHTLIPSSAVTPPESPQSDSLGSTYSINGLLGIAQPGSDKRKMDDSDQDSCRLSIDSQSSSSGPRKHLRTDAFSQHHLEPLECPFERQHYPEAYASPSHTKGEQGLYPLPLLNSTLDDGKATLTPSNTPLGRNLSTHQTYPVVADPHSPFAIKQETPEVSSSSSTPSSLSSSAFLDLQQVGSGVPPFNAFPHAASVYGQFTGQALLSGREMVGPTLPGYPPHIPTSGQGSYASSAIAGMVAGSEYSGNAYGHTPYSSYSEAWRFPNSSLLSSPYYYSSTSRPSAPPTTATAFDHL", "assay": "inhibitors of PAX8-driven TPO luciferase reporter, dose response, RMG-I cells, cherry-pick (AID 687027);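 also: luciferase reporter driven by Pax8 target thyroperoxidase promoter measured by SteadyGlo luminescence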", "format": "functional, cell-based"}, "[4]": {"assay": "inhibitors of CMV-promoter luciferase reporter, dose response, counter-screen for Pax8 inhibitor project, cell-based, HEK293, luminescence, dry powder (AID 743020)", "format": "functional"}, "[5]": {"assay": "cytotoxicity in OVCAR8 ovarian cancer cells, dose response, PAX8 project, cell-based, plate reader, dry powder samples (AID 743197)", "format": "functional", "conditions": "OVCAR-8"}, "[6]": {"assay": "IGROV1 ovarian cancer cell cytotoxicity, dose response, PAX8 inhibitor project, plate reader, dry powder samples (AID 743043)", "format": "functional, cell-based", "conditions": "IGROV-1"}, "[7]": {"assay": "NIH:OVCAR-3 ovarian cancer cell cytotoxicity, dose response, PAX8 inhibitor project, plate reader, dry powder samples (AID 743044)", "format": "functional, cell-based"}, "[8]": {"assay": "HeLa cell cytotoxicity, dose response, cytotoxicity control, 24 h, plate reader, dry powder (AID 686928)", "format": "functional, cell-based"}, "[9]": {"assay": "T. cruzi intracellular amastigote growth inhibition, dose response, imaging, CA-I/72 strain, bovine embryo skeletal muscle, dry powder (AID 651885)", "format": "functional, cell-based"}, "cells [10]": {"assay": "cells"}}, "note": "The source made the active and inactive calls.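 For EC50 in this document: target is galanin receptor GalR3 read with a cAMP biosensor in HEK293 cells.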"}
{"smiles": "Cn1nc(C(C)(C)C)cc1C(=O)NCc1cc(F)cc2c1OCOC2", "values": [{"measurement": "IC50", "setting": "[1]", "value": "6.69 µM (active)"}, {"measurement": "AC50", "setting": "INS1", "value": "4.13 µM (active)"}, {"measurement": "EC50", "setting": "cells [2]", "value": "> 29.9 µM (inactive)"}, {"measurement": "IC50", "setting": "Galanin receptor type 3", "value": "0.987 µM (active)"}, {"measurement": "IC50", "setting": "[3]", "value": "> 80 µM (inactive)"}]}
{"smiles": "C[C@@H]1CCCCO[C@H](CN(C)CC2CCCCC2)[C@H](C)CN([C@@H](C)CO)C(=O)c2cc(NS(=O)(=O)c3ccc(Cl)cc3)ccc2O1", "values": [{"measurement": "AC50", "setting": "Paired box protein Pax-8", "value": "6.43 µM (active)"}, {"measurement": "AC50", "setting": "[4]", "value": "50.5 µM (active)"}]}
{"smiles": "Cc1ccc(S(=O)(=O)N(C)C[C@H]2OCCCC[C@H](C)Oc3ccc(NS(=O)(=O)c4ccc(Cl)cc4)cc3C(=O)N([C@H](C)CO)C[C@@H]2C)cc1", "values": [{"measurement": "AC50", "setting": "[5]", "value": "31.7 µM (active)"}, {"measurement": "AC50", "setting": "Paired box protein Pax-8", "value": "4.09 µM (active)"}, {"measurement": "AC50", "setting": "[6]", "value": "45.7 µM (active)"}, {"measurement": "AC50", "setting": "[7]", "value": "17.9 µM (active)"}]}
{"smiles": "O=c1ncn(-c2cccc(Cl)c2)c2cc(Cl)ccc12", "values": [{"measurement": "AC50", "setting": "[8]", "value": "> 160 µM (inactive)"}]}
{"smiles": "CNC[C@@H]1Oc2c(NC(=O)c3ccncc3)cccc2C(=O)N(C(C)C)C[C@H]1C", "values": [{"measurement": "IC50", "setting": "[9]", "value": "> 20 µM (inactive)"}]}
{"smiles": "O=c1c2ccccc2n(CC(O)CN2CCCCC2)c2ccccc12", "note": "(centres undefined)", "values": [{"measurement": "AC50", "setting": "cells [10]", "value": "3.43 µM (active)"}]}
